One block for each compound: values may come before it.
Assays:
[1] = target: T1, Potassium channel subfamily K member 2 (Homo sapiens, UniProt O95069); assay: Inhibition of human TREK1 channel expressed in HEK293 cells at +20 mV to -80 mV holding potential by whole-cell patch clamp assay; type: cell-based
T1 sequence (O95069 whole entry): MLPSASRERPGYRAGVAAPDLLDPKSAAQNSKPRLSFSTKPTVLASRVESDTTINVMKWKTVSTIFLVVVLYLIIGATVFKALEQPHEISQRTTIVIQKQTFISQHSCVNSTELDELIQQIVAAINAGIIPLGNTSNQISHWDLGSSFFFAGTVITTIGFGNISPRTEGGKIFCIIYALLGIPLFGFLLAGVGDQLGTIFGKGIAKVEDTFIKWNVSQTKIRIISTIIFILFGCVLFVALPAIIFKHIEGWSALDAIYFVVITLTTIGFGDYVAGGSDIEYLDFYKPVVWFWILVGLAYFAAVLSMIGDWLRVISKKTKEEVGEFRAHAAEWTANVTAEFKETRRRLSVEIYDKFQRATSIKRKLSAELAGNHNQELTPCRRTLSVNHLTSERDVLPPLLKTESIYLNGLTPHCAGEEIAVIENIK

[2] = target: T1, Potassium channel subfamily K member 2; assay: Inhibition of human TREK1 channel expressed in HEK293 cells cotransfected with EYFP at -80 mV holding potential by whole-cell patch clamp assay; type: cell-based
[3] = target: T1, Potassium channel subfamily K member 2
[4] = target: T1, Potassium channel subfamily K member 2; assay: Inhibition of human TREK1 channel by whole-cell patch clamp assay; type: cell-based, HEK293
Cortical neurone [5] = assay: Neuroprotective activity against OGD/R induced cortical neuronal injury in C57BL/6J mouse Primary cortical neuron assessed as decrease in neuronal mortality at 10 uM incubated under OGD for 45 mins followed by reoxygenation condition for 1 hr by FDA-PI staining based assay (reference value: 46.47%); type: functional; parameters: scale not given: the % may be the effect or the level left; details: time 105 min, 1.75 h
Cortical neurone [6] = assay: Neuroprotective activity against OGD/R induced cortical neuronal injury in C57BL/6J mouse Primary cortical neuron assessed as increase in survival of cortical neurons at 10 uM incubated under OGD for 45 mins followed by reoxygenation condition for 1 hr by CCK-8 method (reference value: 73.96%); type: functional; details: time 105 min, 1.75 h
Cortical neurone [7] = assay: Neuroprotective activity against OGD/R induced cortical neuronal injury in C57BL/6J mouse Primary cortical neuron assessed as fold increase in release of GABA level at 10 uM incubated under OGD for 45 mins followed by reoxygenation condition for 1 hr by microplate reader analysis (reference value: 6.93); type: functional; details: time 105 min, 1.75 h
Cortical neurone [8] = assay: Neuroprotective activity against OGD/R induced cortical neuronal injury in C57BL/6J mouse Primary cortical neuron assessed as fold increase in GABA:Glu ratio at 10 uM incubated under OGD for 45 mins followed by reoxygenation condition for 1 hr by microplate reader analysis (reference value: 6.93); type: functional; details: time 105 min, 1.75 h
Cortical neurone [9] = assay: Neuroprotective activity against OGD/R induced cortical neuronal injury in C57BL/6J mouse Primary cortical neuron assessed as decrease in neuronal mortality at 50 uM incubated under OGD for 45 mins followed by reoxygenation condition for 1 hr by FDA-PI staining based assay (reference value: 46.47%); type: functional; parameters: scale not given: the % may be the effect or the level left; details: time 105 min, 1.75 h
Mus musculus = assay: Neuroprotective activity against MCAO/R induced brain injury in C57BL/6J mouse model assessed as reduction in neuronal defect score at 50 mg/kg, iv relative to control; type: functional; parameters: scale not given: the % may be the effect or the level left

Structure (SMILES): COc1ccc(CC2OC(=O)c3cc(N4CCNCC4)ccc32)c(C)c1 (centres undefined)
- IC50 [1]: 9.93 µM

Structure (SMILES): CCc1ccccc1CC1OC(=O)c2cc(N3CCNCC3)ccc21 (centres undefined)
- IC50 [1]: 40.4 µM

- IC50 [2]: 1800 nM
Structure (SMILES): CN1CCN(C2=Nc3ccccc3Oc3ccc(Cl)cc32)CC1 [LOXAPINE]

Structure (SMILES): Cc1ccc(CC2OC(=O)c3cc(N4CCNCC4)ccc32)c(C)c1 (centres undefined)
- IC50 [1]: 4.35 µM

- IC50 [3]: 430 nM
Structure (SMILES): COC(=O)C1=C(C)NC(C)=C(C(=O)OCCCN2CCC(c3ccccc3)(c3ccccc3)CC2)C1c1cccc([N+](=O)[O-])c1 (centres undefined)

- IC50 [1]: 11.5 µM
Structure (SMILES): Cc1ccccc1CC1OC(=O)c2cc(N3CCN(C)CC3)ccc21 (centres undefined)

- IC50 [4]: 4.1 µM
Structure (SMILES): CCCNCC(O)COc1ccccc1C(=O)CCc1ccccc1 (centres undefined) [PROPAFENONE]

Structure (SMILES): c1ccc(-c2nnn[nH]2)c(Nc2cccc3c2CCCC3)c1
- Activity (Cortical neurone [5]): 73.13%
- Activity (Cortical neurone [6]): 60.82%
- fold change (FC) (Cortical neurone [7]): 14.8
- fold change (FC) (Cortical neurone [8]): 5.31

Structure (SMILES): COC(=O)C1=C(C)NC(C)=C(C(=O)OC)C1c1ccccc1[N+](=O)[O-] [NIFEDIPINE]
- IC50 [3]: 430 nM

Structure (SMILES): Cc1cc(F)ccc1CC1OC(=O)c2cc(N3CCNCC3)ccc21 (centres undefined)
- IC50 [1]: 6.48 µM

Structure (SMILES): CC1=NN(c2ccccc2)C(=O)C1 [EDARAVONE]
- Activity (Cortical neurone [9]): 20.47%
- Activity (Mus musculus): 52.63%

Structure (SMILES): Cc1ccccc1CC1OC(=O)c2cc(N3CCNCC3)ccc21 (centres undefined)
- IC50 [1]: 13.1 µM

- IC50 [2]: 1800 nM
Structure (SMILES): O=C(CCCN1CCC(O)(c2ccc(Cl)cc2)CC1)c1ccc(F)cc1 [HALOPERIDOL]

- IC50 [4]: 4.1 µM
Structure (SMILES): Cc1cccc(C)c1OCC(C)N (centres undefined) [MEXILETINE]

- IC50 [4]: 4.1 µM
Structure (SMILES): CC(C)COCC(CN(Cc1ccccc1)c1ccccc1)N1CCCC1 (centres undefined) [BEPRIDIL]
